Laboratory results reported in publication PMC7377239, “Cardiovascular Effects of Polychlorinated Biphenyls and Their Major Metabolites” (Environmental Health Perspectives, 2020).
Like-named read-outs stand apart in the source and are kept apart here.

Test system: iCell cardiomyocytes (human iPSC-derived cardiomyocytes)
Experiment: Intracellular Ca2+ flux / beating parameters in iCell cardiomyocytes (FLIPR tetra), 90 min or 24 h
Type: cell-based
Conditions: Homo sapiens, Cardiomyocyte, 0.00 µM = 100.00; for activity at 0.1 µM: 0.10 µM
In short: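 PODs were defined as the concentration crossing one SD of the vehicle-control means (0.5% DMSO) on four-parameter logistic fits of Ca2+ trace metrics (peak height, frequency, peak-spacing CV, decay/rise ratio). Traces came from 100 s, 8 Hz FLIPR reads at 37 °C on calcium-dye-loaded iCell cardiomyocytes. Before reading, cells were treated for 90 min or 24 h from 5× chemical plates spanning 0.05–500 µM, in triplicate.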

[1] = 1.5 h, 90min, read-out: cm.amp.avg.90min
[2] = 1.5 h, 90min, read-out: cm.amp.cv.90min
[3] = 1.5 h, 90min, read-out: cm.bpm.90min
[4] = 1.5 h, 90min, read-out: cm.decay.rise.90min
[5] = 1.5 h, 90min, read-out: cm.spacing.cv.90min
[6] = 24 h, 24hrs, read-out: cm.amp.avg.24hrs
[7] = 24 h, 24hrs, read-out: cm.amp.cv.24hrs
[8] = 24 h, 24hrs, read-out: cm.bpm.24hrs
[9] = 24 h, 24hrs, read-out: cm.decay.rise.24hrs
[10] = 24 h, 24hrs, read-out: cm.spacing.cv.24hrs

SMILES: Clc1ccc(Cl)c(-c2cc(Cl)ccc2Cl)c1 [PCB52]
- activity at 0.01 µM [1]: 97.9%
- activity at 0.01 µM [2]: 90.9%
- activity at 0.01 µM [3]: 102%
- activity at 0.01 µM [4]: 101%
- activity at 0.01 µM [5]: 93.9%
- activity at 0.1 µM [1]: 101%
- activity at 0.1 µM [2]: 102%
- activity at 0.1 µM [3]: 99.1%
- activity at 0.1 µM [4]: 101%
- activity at 0.1 µM [5]: 98.6%
- activity at 1 µM [1]: 105%
- activity at 1 µM [2]: 111%
- activity at 1 µM [3]: 97.8%
- activity at 1 µM [4]: 102%
- activity at 1 µM [5]: 91%
- activity at 10 µM [1]: 96.6%
- activity at 10 µM [2]: 99.4%
- activity at 10 µM [3]: 99.1%
- activity at 10 µM [4]: 111%
- activity at 10 µM [5]: 102%
- activity at 100 µM [1]: 44.4%
- activity at 100 µM [2]: 73%
- activity at 100 µM [3]: 0%
- activity at 100 µM [4]: 42.8%
- activity at 100 µM [5]: 71.6%
- activity at 0.01 µM [6]: 86.6%
- activity at 0.01 µM [7]: 98.1%
- activity at 0.01 µM [8]: 96.4%
- activity at 0.01 µM [9]: 111%
- activity at 0.01 µM [10]: 109%
- activity at 0.1 µM [6]: 84.6%
- activity at 0.1 µM [7]: 95.6%
- activity at 0.1 µM [8]: 90.7%
- activity at 0.1 µM [9]: 108%
- activity at 0.1 µM [10]: 89.3%
- activity at 1 µM [6]: 51.8%
- activity at 1 µM [7]: 42.2%
- activity at 1 µM [8]: 46.8%
- activity at 1 µM [9]: 55.5%
- activity at 1 µM [10]: 44.5%
- activity at 10 µM [6]: 86.5%
- activity at 10 µM [7]: 119%
- activity at 10 µM [8]: 93.6%
- activity at 10 µM [9]: 127%
- activity at 10 µM [10]: 98.5%
- activity at 100 µM [6]: 0%
- activity at 100 µM [7]: 0%
- activity at 100 µM [8]: 0%
- activity at 100 µM [9]: 0%
- activity at 100 µM [10]: 0%

SMILES: Clc1ccc(Cl)c(-c2c(Cl)ccc(Cl)c2Cl)c1 [PCB95]
- activity at 0.01 µM [1]: 91.5%
- activity at 0.01 µM [2]: 105%
- activity at 0.01 µM [3]: 99.1%
- activity at 0.01 µM [4]: 101%
- activity at 0.01 µM [5]: 118%
- activity at 0.1 µM [1]: 99.9%
- activity at 0.1 µM [2]: 86.3%
- activity at 0.1 µM [3]: 96.5%
- activity at 0.1 µM [4]: 103%
- activity at 0.1 µM [5]: 104%
- activity at 1 µM [1]: 84.6%
- activity at 1 µM [2]: 116%
- activity at 1 µM [3]: 85.3%
- activity at 1 µM [4]: 109%
- activity at 1 µM [5]: 92%
- activity at 10 µM [1]: 101%
- activity at 10 µM [2]: 120%
- activity at 10 µM [3]: 86.5%
- activity at 10 µM [4]: 120%
- activity at 10 µM [5]: 120%
- activity at 100 µM [1]: 9.49%
- activity at 100 µM [2]: 441%
- activity at 100 µM [3]: 0%
- activity at 100 µM [4]: 36.2%
- activity at 100 µM [5]: 78.1%
- activity at 0.01 µM [6]: 115%
- activity at 0.01 µM [7]: 139%
- activity at 0.01 µM [8]: 110%
- activity at 0.01 µM [9]: 92.5%
- activity at 0.01 µM [10]: 142%
- activity at 0.1 µM [6]: 181%
- activity at 0.1 µM [7]: 73.7%
- activity at 0.1 µM [8]: 113%
- activity at 0.1 µM [9]: 99.1%
- activity at 0.1 µM [10]: 137%
- activity at 1 µM [6]: 76.5%
- activity at 1 µM [7]: 36.8%
- activity at 1 µM [8]: 43.9%
- activity at 1 µM [9]: 54.1%
- activity at 1 µM [10]: 61.3%
- activity at 10 µM [6]: 144%
- activity at 10 µM [7]: 77.4%
- activity at 10 µM [8]: 79.2%
- activity at 10 µM [9]: 109%
- activity at 10 µM [10]: 127%
- activity at 100 µM [6]: 0%
- activity at 100 µM [7]: 0%
- activity at 100 µM [8]: 0%
- activity at 100 µM [9]: 0%
- activity at 100 µM [10]: 0%

SMILES: Clc1ccc(-c2cc(Cl)c(Cl)c(Cl)c2)cc1Cl [PCB126]
- activity at 0.01 µM [1]: 100%
- activity at 0.01 µM [2]: 110%
- activity at 0.01 µM [3]: 107%
- activity at 0.01 µM [4]: 102%
- activity at 0.01 µM [5]: 135%
- activity at 0.1 µM [1]: 102%
- activity at 0.1 µM [2]: 139%
- activity at 0.1 µM [3]: 97.8%
- activity at 0.1 µM [4]: 99.8%
- activity at 0.1 µM [5]: 119%
- activity at 1 µM [1]: 102%
- activity at 1 µM [2]: 114%
- activity at 1 µM [3]: 105%
- activity at 1 µM [4]: 96%
- activity at 1 µM [5]: 115%
- activity at 10 µM [1]: 90.3%
- activity at 10 µM [2]: 363%
- activity at 10 µM [3]: 128%
- activity at 10 µM [4]: 83%
- activity at 100 µM [1]: 117%
- activity at 100 µM [2]: 120%
- activity at 100 µM [3]: 135%
- activity at 100 µM [4]: 86.2%
- activity at 100 µM [5]: 106%
- activity at 0.01 µM [6]: 73.3%
- activity at 0.01 µM [7]: 143%
- activity at 0.01 µM [8]: 100%
- activity at 0.01 µM [9]: 101%
- activity at 0.01 µM [10]: 122%
- activity at 0.1 µM [6]: 79.8%
- activity at 0.1 µM [7]: 120%
- activity at 0.1 µM [8]: 100%
- activity at 0.1 µM [9]: 109%
- activity at 0.1 µM [10]: 117%
- activity at 1 µM [6]: 72.2%
- activity at 1 µM [7]: 128%
- activity at 1 µM [8]: 104%
- activity at 1 µM [9]: 97.6%
- activity at 1 µM [10]: 113%
- activity at 10 µM [6]: 78.8%
- activity at 10 µM [7]: 38.8%
- activity at 10 µM [8]: 68.7%
- activity at 10 µM [9]: 50%
- activity at 10 µM [10]: 66.1%
- activity at 100 µM [6]: 20.9%
- activity at 100 µM [7]: 121%
- activity at 100 µM [8]: 70.6%
- activity at 100 µM [9]: 29.1%
- activity at 100 µM [10]: 81%
